Measured values reported in PMC5727211, “Development of Erasin: a chromone-based STAT3 inhibitor which induces apoptosis in Erlotinib-resistant lung cancer cells” (Scientific Reports, 2017).
Like-named read-outs stand apart in the source and are kept apart here.

Columns and labels:
[1] = target: STAT3 SH2 domain (Homo sapiens, UniProt P40763); test: FP-based competitive binding assay, STAT3 SH2 domain
Procedure: (§1) The STAT family display a high degree of homology. […] Vilsmeyer-Haack formylation of 2-hydroxy acetophenones led to 3-formyl chromones, which were subsequently converted to the acyl hydrazones by reaction with hydrazides (Fig. 1). The target molecules were tested for their abilities to inhibit binding of fluorophore-labeled peptides to the SH2 domains of STAT1[24], STAT3[25], and STAT5b[26] in assays based on fluorescence polarization (FP). The more distantly related SH2 domain of the tyrosine kinase Lck served as additional specificity control[27],[28].
Assays were performed essentially as described. In brief, protein was incubated with the test compounds for 1 h at room temperature at the following protein concentrations: STAT1: 400 nM, STAT3: 210 nM, STAT5b: 300 nM, Lck SH2: 35 nM. Subsequently, the corresponding fluorophore-labeled peptide was added: STAT1: (5-carboxyfluorescein)-GpYDKPHVL-OH, derived from the interferon-γ receptor[24]; STAT3: (5-carboxyfluorescein)-GpYLPQTV-NH2, derived from the gp130 subunit of the IL-6 receptor[25]; STAT5b: (5-carboxyfluorescein)-GpYLVLDKW-OH, derived from the erythropoietin receptor[26]; Lck SH2: (5-carboxyfluorescein)-GpYEEIP-OH, derived from the middle-T antigen. After a further hour of incubation, fluorescence polarization was measured in a plate reader (Tecan Infinite F500). Apparent IC50 data shown in Tables 1, 2, and S1 and the inhibition curves shown in Fig. 2a correspond to this time point. The majority of the pipetting work was carried out using a Biomek FXp workstation (Beckman-Coulter). […]

[2] = test system: Erlotinib-resistant HCC-827 cells; test: Apoptosis assay (Annexin V/7-AAD flow cytometry), Erlotinib-resistant HCC-827 cells; type: cell-based, human; settings: 24 h
Procedure: Afterwards, the cell culture supernatant from each well was collected. […] The supernatants were then returned to each well to neutralize the Accutase solution and the cells were centrifuged at 3000 rpm, at 4 °C for 5 min. The cell pellets were washed twice with cold PBS and centrifuged again. […] Cells were resuspended in 1 x binding buffer and incubated with PE Annexin V and 7-AAD at 4 °C for 30 min. Apoptosis was measured using an LSR II flow cytometer (BD Bioscience). Experiments were carried out in at least triplicate. […]

[3] = target: T1, Lck SH2 (Homo sapiens, UniProt P06239); test: FP-based competitive binding assay, Lck SH2 domain; settings: at 80 µM
T1 construct: STAT1: 400 nM, STAT3: 210 nM, STAT5b: 300 nM, Lck SH2: 35 nM
Procedure: as §1
(§2) Assays were performed essentially as described. In brief, protein was incubated with the test compounds for 1 h at room temperature at the following protein concentrations: STAT1: 400 nM, STAT3: 210 nM, STAT5b: 300 nM, Lck SH2: 35 nM. Subsequently, the corresponding fluorophore-labeled peptide was added: STAT1: (5-carboxyfluorescein)-GpYDKPHVL-OH, derived from the interferon-γ receptor[24]; STAT3: (5-carboxyfluorescein)-GpYLPQTV-NH2, derived from the gp130 subunit of the IL-6 receptor[25]; STAT5b: (5-carboxyfluorescein)-GpYLVLDKW-OH, derived from the erythropoietin receptor[26]; Lck SH2: (5-carboxyfluorescein)-GpYEEIP-OH, derived from the middle-T antigen. After a further hour of incubation, fluorescence polarization was measured in a plate reader (Tecan Infinite F500). Apparent IC50 data shown in Tables 1, 2, and S1 and the inhibition curves shown in Fig. 2a correspond to this time point. The majority of the pipetting work was carried out using a Biomek FXp workstation (Beckman-Coulter). Buffer composition: 10 mM Tris pH 8.0, 50 mM NaCl, 1 mM EDTA, 1 mM dithiothreitol (DTT), 0.1% Nonidet P-40, and 2% DMSO.
Supplementary Figures and Table
No Structure app. IC50 [µM] or
Supplementary Table S1: Activities of test compounds in fluorescence polarization assays against the
SH2 domains of Lck. See the Supporting Methods for details. […]

[4] = target: T2, STAT5b SH2 domain (Homo sapiens, UniProt P51692); test: FP-based competitive binding assay, STAT5b SH2 domain; settings: at 80 µM, mean ± s.d., three experiments
T2 sequence (P51692 1-787): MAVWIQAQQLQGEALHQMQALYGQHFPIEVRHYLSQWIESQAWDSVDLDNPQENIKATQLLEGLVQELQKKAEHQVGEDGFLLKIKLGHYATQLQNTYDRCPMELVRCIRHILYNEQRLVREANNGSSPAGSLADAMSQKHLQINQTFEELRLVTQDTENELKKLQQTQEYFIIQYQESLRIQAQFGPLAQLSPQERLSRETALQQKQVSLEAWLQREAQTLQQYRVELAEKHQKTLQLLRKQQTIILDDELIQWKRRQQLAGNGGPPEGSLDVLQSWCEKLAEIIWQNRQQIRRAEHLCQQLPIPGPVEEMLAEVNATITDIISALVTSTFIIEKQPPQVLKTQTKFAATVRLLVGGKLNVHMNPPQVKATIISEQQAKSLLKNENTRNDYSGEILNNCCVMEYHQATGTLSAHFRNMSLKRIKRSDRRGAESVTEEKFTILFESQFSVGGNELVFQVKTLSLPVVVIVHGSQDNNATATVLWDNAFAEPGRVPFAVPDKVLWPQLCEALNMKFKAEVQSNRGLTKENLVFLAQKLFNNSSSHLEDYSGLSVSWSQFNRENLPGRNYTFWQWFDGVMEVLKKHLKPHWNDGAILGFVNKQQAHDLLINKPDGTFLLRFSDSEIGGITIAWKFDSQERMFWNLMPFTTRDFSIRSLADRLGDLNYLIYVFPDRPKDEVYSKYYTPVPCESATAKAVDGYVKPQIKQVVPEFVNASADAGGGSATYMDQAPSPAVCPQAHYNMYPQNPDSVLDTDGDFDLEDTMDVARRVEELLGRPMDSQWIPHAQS
Procedure: as §1, §2

STAT3 SH2 domain, sequence (P40763 whole entry, the tested form may be a part): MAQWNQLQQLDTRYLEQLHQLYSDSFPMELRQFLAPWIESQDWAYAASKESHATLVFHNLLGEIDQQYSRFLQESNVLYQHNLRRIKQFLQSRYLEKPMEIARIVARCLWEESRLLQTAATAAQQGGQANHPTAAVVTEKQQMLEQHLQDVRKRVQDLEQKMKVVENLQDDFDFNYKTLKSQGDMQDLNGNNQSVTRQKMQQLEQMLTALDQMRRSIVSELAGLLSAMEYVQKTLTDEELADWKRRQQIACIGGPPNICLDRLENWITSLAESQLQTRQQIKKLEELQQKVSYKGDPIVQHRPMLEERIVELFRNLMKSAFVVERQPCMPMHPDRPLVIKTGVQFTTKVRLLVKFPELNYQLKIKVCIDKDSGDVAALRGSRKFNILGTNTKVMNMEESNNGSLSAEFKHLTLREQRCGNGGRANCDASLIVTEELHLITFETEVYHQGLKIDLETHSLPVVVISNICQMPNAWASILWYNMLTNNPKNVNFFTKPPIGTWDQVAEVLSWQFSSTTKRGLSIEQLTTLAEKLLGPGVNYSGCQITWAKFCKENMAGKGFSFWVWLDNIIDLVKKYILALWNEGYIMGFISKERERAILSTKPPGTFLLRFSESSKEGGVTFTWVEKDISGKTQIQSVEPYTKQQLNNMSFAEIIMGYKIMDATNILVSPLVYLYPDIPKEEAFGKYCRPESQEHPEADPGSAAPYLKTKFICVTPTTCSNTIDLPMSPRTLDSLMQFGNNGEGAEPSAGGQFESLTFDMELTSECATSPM
T1 sequence (P06239 127-224 limits assumed): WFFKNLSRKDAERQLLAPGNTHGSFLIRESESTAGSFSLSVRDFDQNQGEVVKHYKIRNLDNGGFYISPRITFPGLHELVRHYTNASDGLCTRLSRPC

inhibition at 80 µM ([1]; at 80 µM, mean ± s.d., three experiments) [%] | Lck inhibition [3] | STAT5b inhibition [4] | IC50 ([1]; 1 h with protein, then 1 h with peptide, mean ± s.d., three experiments, read-out: STAT3 app. IC50) [µM] | IC50 ([1]; after 9 h, read-out: apparent IC50 against wild-type STAT3 after 9 h) [µM] | inhibition at 80 µM [4] [%] | SMILES | increase in rate of apoptosis relative to DMSO control [2] | effect of omission of DTT from assay buffer on inhibitory activity against STAT3 ([1]; 2 h of incubation, without DTT)
45 ± 5 | no inhibition | no inhibition at 80 µM |  |  |  | CCC(C)(C)c1ccc2occ(/C=N/NC(=O)c3cccnc3)c(=O)c2c1 [Compound 9] | did not increase the apoptotic rate | 
 | no inhibition |  | 9.7 ± 1.8 | 2.8 | 32 ± 2 | CC(C)(C)c1ccc2occ(/C=N/NC(=O)c3cccnc3)c(=O)c2c1 [Compound 8] | equally effective | does not significantly increase the inhibitory activity
